Test results published in patent publication US12202835B2, “Substituted aromatic ring-linked dioxinoquinazolines and dioxinoquinolines as kinase inhibitors” (BEIJING SCITECH-MQ PHARMACEUTICALS LIMITED, priority 2018, dated 2025).

Experiments:
TRKA kinase = TRKA kinase (Homo sapiens (Human), UniProt P04629); assay: Assay of small molecular compounds for inhibiting the activity of TRKA kinase (LANCE TR-FRET); type: biochemical
In short: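 LANCE TR-FRET with ULight-TK peptide; compounds pre-incubated 5 min with TRKA (2× solution 2 nM), then substrate/ATP added (4× mix: 400 nM peptide, 40 μM ATP). Reaction 60 min at room temperature in dark, 1% DMSO final; stopped, detection developed 60 min, signal read.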

VEGFR-2 kinase = VEGFR-2 kinase (Homo sapiens (Human), UniProt P35968); assay: Assay of small molecular compounds for inhibiting the activity of VEGFR-2 kinase (LANCE TR-FRET); type: biochemical; settings: read-out: VEGFR2 IC50
Sequence of VEGFR-2 kinase (P35968 20-1356): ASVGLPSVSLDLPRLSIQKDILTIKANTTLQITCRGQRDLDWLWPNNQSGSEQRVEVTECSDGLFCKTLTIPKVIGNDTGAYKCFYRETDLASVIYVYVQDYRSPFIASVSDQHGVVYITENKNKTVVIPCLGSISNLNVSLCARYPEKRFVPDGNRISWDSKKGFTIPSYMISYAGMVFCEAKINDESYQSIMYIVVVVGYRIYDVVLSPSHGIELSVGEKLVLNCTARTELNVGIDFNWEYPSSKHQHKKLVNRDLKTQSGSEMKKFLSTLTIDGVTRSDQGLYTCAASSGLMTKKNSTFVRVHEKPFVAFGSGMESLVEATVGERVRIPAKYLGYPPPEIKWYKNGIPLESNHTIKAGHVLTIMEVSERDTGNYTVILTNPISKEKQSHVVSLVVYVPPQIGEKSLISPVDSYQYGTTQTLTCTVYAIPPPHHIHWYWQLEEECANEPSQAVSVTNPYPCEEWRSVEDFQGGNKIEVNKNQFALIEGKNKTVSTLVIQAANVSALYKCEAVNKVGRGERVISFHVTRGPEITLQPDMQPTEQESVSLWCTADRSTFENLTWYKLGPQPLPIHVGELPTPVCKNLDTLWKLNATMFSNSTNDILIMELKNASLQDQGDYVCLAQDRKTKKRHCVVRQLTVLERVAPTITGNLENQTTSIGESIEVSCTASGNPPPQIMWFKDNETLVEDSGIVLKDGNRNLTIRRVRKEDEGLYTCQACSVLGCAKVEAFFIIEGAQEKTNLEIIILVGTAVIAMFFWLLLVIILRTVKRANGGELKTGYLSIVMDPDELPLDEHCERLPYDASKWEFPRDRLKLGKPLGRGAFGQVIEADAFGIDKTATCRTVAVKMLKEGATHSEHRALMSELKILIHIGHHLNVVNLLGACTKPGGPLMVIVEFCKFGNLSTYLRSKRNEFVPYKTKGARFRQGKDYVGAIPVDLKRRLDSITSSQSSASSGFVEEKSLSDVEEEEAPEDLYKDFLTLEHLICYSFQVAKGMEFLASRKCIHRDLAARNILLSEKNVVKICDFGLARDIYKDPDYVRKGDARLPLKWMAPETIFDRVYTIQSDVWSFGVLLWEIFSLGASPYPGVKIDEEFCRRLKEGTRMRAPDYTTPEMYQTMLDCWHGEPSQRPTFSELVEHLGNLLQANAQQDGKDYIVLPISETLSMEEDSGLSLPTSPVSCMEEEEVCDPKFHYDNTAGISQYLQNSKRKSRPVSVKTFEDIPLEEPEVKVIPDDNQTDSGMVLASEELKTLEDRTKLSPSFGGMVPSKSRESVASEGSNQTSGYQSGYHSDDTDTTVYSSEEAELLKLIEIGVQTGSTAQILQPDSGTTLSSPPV
In short: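 LANCE TR-FRET with human VEGFR-2 (2× stock 0.5 nM) preincubated 30 min with compound (final 2500 to 0.042 nM, 11-point 3-fold), then ULight-JAK-1 (Tyr1023) peptide/ATP added (4× stocks 200 nM/40 μM). Reaction 60 min room temperature, 4% DMSO; IC50 from inhibition-rate curve.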

Ba/F3-AXL cells = assay: Assay for inhibiting the proliferation of Ba/F3-AXL cells (CCK-8); type: cell-based; settings: 72 hours of incubation, medium with 100 ng/mL hGas6, CCK-8
Procedure: The values were then imported into Graphpad Prism 5 software for curve fitting, and IC50 was calculated.

Ba/F3 LMNA-NTRK1 cells = assay: Assay for inhibiting the proliferation of Ba/F3 LMNA-NTRK1 cells (CCK-8); type: cell-based; settings: Mus musculus, BaF3
In short: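 Cells were seeded and cultured overnight, then treated with graded compound concentrations (final DMSO 0.25%) for 72 h. CCK-8 was added for 1–2 h at 37 °C and OD450 read. Survival was normalised to untreated and cell-free blank wells, and IC50 was fitted.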

Sequence of TRKA kinase (P04629 33-796): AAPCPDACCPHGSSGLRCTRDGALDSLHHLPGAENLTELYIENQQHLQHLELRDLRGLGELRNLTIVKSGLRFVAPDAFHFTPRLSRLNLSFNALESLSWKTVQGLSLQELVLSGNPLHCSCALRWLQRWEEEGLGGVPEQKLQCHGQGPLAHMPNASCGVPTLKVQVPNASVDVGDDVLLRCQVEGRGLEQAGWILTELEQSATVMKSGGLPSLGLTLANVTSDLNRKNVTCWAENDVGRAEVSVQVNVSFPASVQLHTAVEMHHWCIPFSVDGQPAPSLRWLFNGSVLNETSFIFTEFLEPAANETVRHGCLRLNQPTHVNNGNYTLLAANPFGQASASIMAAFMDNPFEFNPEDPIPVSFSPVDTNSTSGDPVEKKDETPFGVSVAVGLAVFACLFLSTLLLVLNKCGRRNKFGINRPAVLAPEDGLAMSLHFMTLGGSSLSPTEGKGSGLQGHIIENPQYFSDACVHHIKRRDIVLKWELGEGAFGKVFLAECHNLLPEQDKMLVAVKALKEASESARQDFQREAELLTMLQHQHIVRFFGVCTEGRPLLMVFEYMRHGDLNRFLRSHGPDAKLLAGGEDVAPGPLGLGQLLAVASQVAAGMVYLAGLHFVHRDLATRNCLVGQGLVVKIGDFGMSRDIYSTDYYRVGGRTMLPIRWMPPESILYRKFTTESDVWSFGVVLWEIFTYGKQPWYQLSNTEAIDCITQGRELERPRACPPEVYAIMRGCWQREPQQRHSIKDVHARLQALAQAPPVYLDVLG

Row | IC50 (TRKA kinase) [nM] | IC50 (VEGFR-2 kinase) [nM] | IC50 (Ba/F3-AXL cells) [nM] | IC50 (Ba/F3 LMNA-NTRK1 cells) [nM] | Compound
1 | 50 to 500 | 500 to 5000 | < 50 |  | C=CCn1cc(C(=O)Nc2ccc(Oc3ccnc4cc(OC)c5c(c34)OCCO5)c(F)c2)c(=O)n(-c2ccc(F)cc2)c1=O [Example 100, N-(3-fluoro-4-((5-methoxy-2,3-dihydro-[1,4]dioxino[2,3-f]quinolin-10-yl)oxy)phenyl)-3-(4-fluorophenyl)-1-allyl-2,4-dioxo-1,2,3,4-tetrahydropyrimidine-5-carboxamide]
2 | 50 to 500 | 500 to 5000 | < 50 |  | COc1cc2nccc(Oc3ccc(NC(=O)c4cn(CCF)c(=O)n(-c5ccc(F)cc5)c4=O)cc3F)c2c2c1OCCO2 [Example 101, N-(3-fluoro-4-((5-methoxy-2,3-dihydro-[1,4]dioxino[2,3-f]quinolin-10-yl)oxy)phenyl)-3-(4-fluorophenyl)-1-(2-fluoroethyl)-2,4-dioxo-1,2,3,4-tetrahydropyrimidine-5-carboxamide]
3 | 50 to 500 | 500 to 5000 | < 50 |  | CCOc1ccn(Cc2ccccc2)c(=O)c1C(=O)Nc1ccc(Oc2ccnc3cc(OC)c4c(c23)OCCO4)c(F)c1 [Example 117, N-(3-fluoro-4-((5-methoxy-2,3-dihydro-[1,4]dioxino[2,3-f]quinolin-10-yl)oxy)phenyl)-2-oxo-4-ethoxy-1-benzyl-1,2-dihydropyridin-3-carboxamide]
4 | 50 to 500 | 500 to 5000 | < 50 |  | COc1cc2nccc(Oc3ccc(NC(=O)c4cn(CCCO)c(=O)n(-c5ccc(F)cc5)c4=O)cc3F)c2c2c1OCCO2 [Example 99, N-(3-fluoro-4-((5-methoxy-2,3-dihydro-[1,4]dioxino[2,3-f]quinolin-10-yl)oxy)phenyl)-3-(4-fluorophenyl)-1-(3-hydroxypropyl)-2,4-dioxo-1,2,3,4-tetrahydropyrimidine-5-carboxamide]
5 | < 50 | ≤ 50 | < 50 |  | O=C(Nc1ccc(Oc2ncnc3cc(OCCCN4CCOCC4)c4c(c23)OCCO4)c(F)c1)c1cccn(-c2ccc(F)cc2)c1=O [Example 4, N-(3-fluoro-4-((5-(3-morpholinopropoxy)-2,3-dihydro-[1,4]dioxino[2,3-f]quinazolin-10-yl)oxy)phenyl)-1-(4-fluorophenyl)-2-oxo-1,2-dihydropyridine-3-carboxamide]
6 | < 50 | 50 to 500 | < 50 |  | COc1ccn(-c2ccc(F)cc2)c(=O)c1C(=O)Nc1ccc(Oc2ncnc3cc(OCCCN4CCOCC4)c4c(c23)OCCO4)c(F)c1 [Example 5, N-(3-fluoro-4-((5-(3-morpholinopropoxy)-2,3-dihydro-[1,4]dioxino[2,3-f]quinazolin-10-yl)oxy)phenyl)-1-(4-fluorophenyl)-4-methoxy-2-oxo-1,2-dihydropyridine-3-carboxamide]
7 | < 50 | 50 to 500 |  | < 50 | COc1ccn(-c2ccc(F)cc2)c(=O)c1C(=O)Nc1ccc(Oc2ccnc3cc(OCCCN4CCCCC4)c4c(c23)OCCO4)cc1Cl [Example 136, N-(2-chloro-4-((5-((3-piperidin-1-yl)propoxy)-2,3-dihydro-[1,4]dioxino[2,3-f]quinolin-10-yl)oxy)phenyl)-1-(4-fluorophenyl)-4-methoxy-2-oxo-1,2-dihydropyridine-3-carboxamide]
8 | < 50 | > 5000 |  | < 50 | CCn1cc(C(=O)Nc2ccc(Oc3ccnc4cc(OC)c5c(c34)OCCO5)cc2)c(=O)n(-c2ccc(F)cc2)c1=O [Example 146, N-(4-((5-methoxy-2,3-dihydro-[1,4]dioxino[2,3-f]quinolin-10-yl)oxy)phenyl)-3-(4-fluorophenyl)-1-ethyl-2,4-dioxo-1,2,3,4-tetrahydropyrimidine-5-carboxamide]
9 | 50 to 500 | 500 to 5000 | < 50 |  | Cn1cc(C(=O)Nc2ccc(Oc3ccnc4cc(OCC(C)(C)O)c5c(c34)OCCO5)c(F)c2)c(=O)n(-c2ccc(F)cc2)c1=O [Example 121, N-(3-fluoro-4-((5-(2-hydroxy-2-methylpropoxy)-2,3-dihydro-[1,4]dioxino[2,3-f]quinolin-10-yl)oxy)phenyl)-3-(4-fluorophenyl)-1-methyl-2,4-dioxo-1,2,3,4-tetrahydropyrimidine-5-carboxamide]
10 | < 50 | ≤ 50 |  | < 50 | Cn1cc(C(=O)Nc2ccc(Oc3ncnc4cc(OCCCN5CCOCC5)c5c(c34)OCCO5)c(F)c2)c(=O)n(-c2ccc(F)cc2)c1=O [Example 30, N-(3-fluoro-4-((5-(3-morpholinopropoxy)-2,3-dihydro-[1,4]dioxino[2,3-f]quinazolin-10-yl)oxy)phenyl)-3-(4-fluorophenyl)-1-methyl-2,4-dioxo-1,2,3,4-tetrahydropyrimidine-5-carboxamide]
11 | < 50 | 500 to 5000 |  | < 50 | CCOc1cc2nccc(Oc3ccc(NC(=O)c4cccn(-c5ccc(F)cc5)c4=O)c(Cl)c3)c2c2c1OCCO2 [Example 127, N-(2-chloro-4-((5-ethoxy-2,3-dihydro-[1,4]dioxino[2,3-f]quinolin-10-yl)oxy)phenyl)-1-(4-fluorophenyl)-2-oxo-1,2-dihydropyridine-3-carboxamide]
12 | < 50 | 500 to 5000 |  | < 50 | CCn1cc(C(=O)Nc2cc(F)c(Oc3ccnc4cc(OCCOC)c5c(c34)OCCO5)cc2C)c(=O)n(-c2ccc(F)cc2)c1=O [Example 180, N-(5-fluoro-4-((5-(2-methoxyethoxy)-2,3-dihydro-[1,4]dioxino[2,3-f]quinolin-10-yl)oxy)-2-methylphenyl)-3-(4-fluorophenyl)-1-ethyl-2,4-dioxo-1,2,3,4-tetrahydropyrimidine-5-carboxamide]
13 | < 50 | 500 to 5000 |  | < 50 | COc1cc2nccc(Oc3cc(C)c(NC(=O)c4cn(C)c(=O)n(-c5ccc(F)cc5)c4=O)cc3F)c2c2c1OCCO2 [Example 177, N-(5-fluoro-4-((5-methoxy-2,3-dihydro-[1,4]dioxino[2,3-f]quinolin-10-yl)oxy)-2-methylphenyl)-3-(4-fluorophenyl)-1-methyl-2,4-dioxo-1,2,3,4-tetrahydropyrimidine-5-carboxamide]
14 | < 50 | 50 to 500 |  | < 50 | CCOc1ccn(-c2ccc(F)cc2)c(=O)c1C(=O)Nc1ccc(Oc2ncnc3cc(OCCCN4CCOCC4)c4c(c23)OCCO4)c(F)c1 [Example 6, N-(3-fluoro-4-((5-(3-morpholinopropoxy)-2,3-dihydro-[1,4]dioxino[2,3-f]quinazolin-10-yl)oxy)phenyl)-1-(4-fluorophenyl)-4-ethoxy-2-oxo-1,2-dihydropyridine-3-carboxamide]
15 | < 50 | 500 to 5000 |  | < 50 | CCOc1cc2nccc(Oc3ccc(NC(=O)c4c(OC)ccn(-c5ccc(F)cc5)c4=O)c(Cl)c3)c2c2c1OCCO2 [Example 128, N-(2-chloro-4-((5-ethoxy-2,3-dihydro-[1,4]dioxino[2,3-f]quinolin-10-yl)oxy)phenyl)-1-(4-fluorophenyl)-4-methoxy-2-oxo-1,2-dihydropyridine-3-carboxamide]
16 | < 50 | 500 to 5000 |  | < 50 | COCCOc1cc2nccc(Oc3cc(C)c(NC(=O)c4cn(C)c(=O)n(-c5ccc(F)cc5)c4=O)cc3F)c2c2c1OCCO2 [Example 179, N-(5-fluoro-4-((5-(2-methoxyethoxy)-2,3-dihydro-[1,4]dioxino[2,3-f]quinolin-10-yl)oxy)-2-methylphenyl)-3-(4-fluorophenyl)-1-methyl-2,4-dioxo-1,2,3,4-tetrahydropyrimidine-5-carboxamide]
17 | < 50 | 500 to 5000 |  | < 50 | COc1cc2nccc(Oc3ccc(NC(=O)c4cn(C)c(=O)n(-c5ccc(F)cc5)c4=O)c(F)c3)c2c2c1OCCO2 [Example 153, N-(2-fluoro-4-((5-methoxy-2,3-dihydro-[1,4]dioxino[2,3-f]quinolin-10-yl)oxy)phenyl)-3-(4-fluorophenyl)-1-methyl-2,4-dioxo-1,2,3,4-tetrahydropyrimidine-5-carboxamide]
18 | < 50 | 500 to 5000 |  | < 50 | CCn1cc(C(=O)Nc2ccc(Oc3ccnc4cc(OCCOC)c5c(c34)OCCO5)cc2)c(=O)n(-c2ccc(F)cc2)c1=O [Example 148, N-(4-((5-(2-methoxyethoxy)-2,3-dihydro-[1,4]dioxino[2,3-f]quinolin-10-yl)oxy)phenyl)-3-(4-fluorophenyl)-1-ethyl-2,4-dioxo-1,2,3,4-tetrahydropyrimidine-5-carboxamide]
19 | < 50 | ≤ 50 |  | < 50 | O=C(Nc1ccc(Oc2ccnc3cc(OCCCN4CCCCC4)c4c(c23)OCCO4)cc1Cl)c1cccn(-c2ccc(F)cc2)c1=O [Example 135, N-(2-chloro-4-((5-((3-piperidin-1-yl)propoxy)-2,3-dihydro-[1,4]dioxino[2,3-f]quinolin-10-yl)oxy)phenyl)-1-(4-fluorophenyl)-2-oxo-1,2-dihydropyridine-3-carboxamide]
